Measurements taken from ChEMBL document CHEMBL2331104, “Characterization of human carbonic anhydrase XII stability and inhibitor binding” (Bioorg Med Chem, 2013).
Activity calls are given as the source filed them. No cut-off for these calls is given here.

Legend:
[1] = molecular target: T1, Carbonic anhydrase 12 (Homo sapiens, UniProt O43570); experiment: Inhibition of human carbonic anhydrase 12
[2] = molecular target: T1, Carbonic anhydrase 12; experiment: Binding affinity to human recombinant carbonic anhydrase 12 expressed in Escherichia coli Rosetta (DE3) assessed as protein stability at pH 5 by fluorescent thermal shift assay
[3] = molecular target: T1, Carbonic anhydrase 12; experiment: Binding affinity to human recombinant carbonic anhydrase 12 expressed in Escherichia coli Rosetta (DE3) assessed as protein stability at pH 6 by fluorescent thermal shift assay
[4] = molecular target: T1, Carbonic anhydrase 12; experiment: Binding affinity to human recombinant carbonic anhydrase 12 expressed in Escherichia coli Rosetta (DE3) assessed as protein stability at pH 10 by fluorescent thermal shift assay

T1 sequence (O43570 whole entry): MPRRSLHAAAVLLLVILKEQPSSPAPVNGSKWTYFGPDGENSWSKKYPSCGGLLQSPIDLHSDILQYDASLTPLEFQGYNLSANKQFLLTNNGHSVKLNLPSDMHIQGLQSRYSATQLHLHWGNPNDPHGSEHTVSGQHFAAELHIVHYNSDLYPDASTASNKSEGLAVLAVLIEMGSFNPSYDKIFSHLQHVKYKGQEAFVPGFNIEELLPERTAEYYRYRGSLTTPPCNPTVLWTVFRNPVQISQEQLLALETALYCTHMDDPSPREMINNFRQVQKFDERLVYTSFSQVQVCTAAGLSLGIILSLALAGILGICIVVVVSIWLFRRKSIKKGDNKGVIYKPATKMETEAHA

Row | SMILES | Ki [1] [nM] | Activity [2] | Activity [3] | Activity [4]
1 | CCCc1ccc2ccc(=O)oc2c1C(C)=O | 0.98 |  |  | 
2 | CCc1ccc2ccc(=O)oc2c1C(C)=O | 1 |  |  | 
3 | NS(=O)(=O)C(F)(F)F |  | inactive | Active | inactive
4 | CCOc1ccc2nc(S(N)(=O)=O)sc2c1 |  | inactive | Active | inactive
